Data taken from patent US11324237B2, “Tasteful natural sweetener and flavor” (EPC Natural Products Co., Ltd., priority 2018, dated 2022).
Entries after “also recorded” stand apart in the source; their conditions may differ.

Assays:
[1] = relative to sugar; cited from earlier work
[2] = Assay to test Reducing Power (iron-III reduction test for anti-oxidant potential); details: combinations of amino acids and Reb-A, 10 mM, pH 7.8, 100° C., diluted 1:10 (FIG. 49)
Protocol: 0.2 M Sodium phosphate buffer, pH=6.6; 500 mg Potassium ferric(III)cyanide/50 mL water, 10% Trichloroacetic acid; 20 mg Iron-III-Chloride/20 mL water; Calibration samples were prepared with Ascorbic acid in a concentration of 0-100 μg/mL 0.2 M Sodium phosphate buffer, pH=6.6 (freshly prepared); as negative control sample water was used.
Samples in aqueous solution were used as such or diluted in 0.2 M Sodium phosphate buffer, pH=6.6.
A 1 mL sample (or calibration standard) was mixed with 1 mL 0.2 M Sodium phosphate buffer, pH=6.6 and 1 mL Potassium ferricyanide solution. The sample was incubated and protected from light at 50° C. for 20 min.
To the solution was added 1 mL Trichloroacetic acid with thorough mixing.
A 1 mL of the mixture was diluted with 1 mL H2O and 0.2 mL Iron-Ill-chloride and reacted for 10 minutes; The absorbance was then determined at 700 nm against H2O.
10 mM of amino acid and/or 10 mM sugar were dissolved in 10 ml 0.1 mM KH2PO4-buffer, pH=7.8. […]
1 ml sample (or calibration standard) solution) was mixed with 0.2 M Sodium phosphate buffer (pH=6.6) and 1 ml Potassium ferric(III)cyanide solution in water (1% w/v) and incubated at 50° C. for 20 minutes. […] The sample was incubated for 10 minutes and absorbance read at 700 nm against a water control. […]
Quantification was performed by linear regression of calibration test results for ascorbic acid. […]

[3] = Assay to test DPPH radical-scavenging activity; details: combinations of amino acids and Reb-A, 10 mM, pH 7.8, 100° C., diluted 1:10 (FIG. 50)
Protocol: 1 mg 1,1-Diphenyl-2-picrylhydrazyl radical (DPPH)/ml ethanol, dilution to assay concentration were prepared in ethanol (40 μg/mL); Calibration samples were prepared with Ascorbic acid in a concentration of 0-10 μg/mL; as a negative control sample, water was used.
Samples in aqueous solution were used as such or diluted with water.
A 0.1 ml sample (or calibration standard) was mixed with 3.9 ml solution of DPPH° (100 μMolar) and reacted while protected from light at room temperature for 30 min. Absorbance was determined at 517 nm against ethanol.
10 mM of amino acid and/or 10 mM sugar were dissolved in 10 ml 0.1 mM KH2PO4-buffer, pH=7.8.
The samples were kept at 100° C. in sealed glass vials (Pyrex 15 ml with screw caps) for 0 (before reaction), 2.5 or 5.0 hours. Thereafter the samples were transferred to an ice water bath and cooled down to room temperature. These samples were diluted 1:10 and used for the test assay for anti-oxidant potential. […]
0.2 ml sample (or calibration standard) solution was mixed with 0.2 ml solution of DPPH® (0.1 mM) and 3.6 ml methanol. […] After 3 minutes the absorbance at 517 nm was obtained against ethanol. Quantification was performed by linear regression of calibration test results for ascorbic acid. […]

[4] = Sensory evaluation of combinations of EPCalin, GSGs and SGs and NHDC in water (Example 234); format: in vivo, human; details: 4.5 ppm Thaumatin and/or 50 ppm GSGs and SGs
Protocol: 4.5 ppm Thaumatin (equivalent to 10 ppm EPCalin) were dissolved in water. Increasing amounts of NHDC (1-5 ppm) were added to the solution and the sensory properties were evaluated.
50 ppm (GSGs and SGs) were dissolved in water. Increasing amounts of NHDC (1-5 ppm) were added to the solution and the sensory properties were evaluated.
50 ppm (GSGs and SGs) and 4.5 ppm Thaumatin (equivalent to 10 ppm EPCalin) were dissolved in water. Increasing amounts of NHDC (1-5 ppm) were added to the solution and the sensory properties were evaluated.
Sweetness Intensity was Rated on 5-Point Scale

[5] = Stevia-derived MRPs with NHDC and thaumatin, alone and in Redbull sugar free (Example 240); format: in vivo, human; details: added before heating to stevia derived MRP; 150 μl in 100 ml Redbull sugar free
Protocol: 150 μl of the each sample was added to 100 ml Redbull sugar free and mixed. The taste profiles of the samples were compared. As a control, a RedBull sugar free sample without the addition of SteviAroma was used.
Before tasting the tasters discussed the upcoming series of samples and tasted samples with predetermined attributes with varying intensities to find a commonality in description. Four trained tasters blind taste tested independently all samples of a series. They were allowed to re-taste and made notes for the sensory attributes perceived including the relative intensity.
In the last step the attributes noted were discussed openly to find an acceptable description. In case that more than 1 taster disagreed with the description, the tasting was repeated.

C[C@H](CC[C@@H](O[C@@H]1O[C@H](CO)[C@@H](O)[C@H](O)[C@H]1O[C@@H]1O[C@H](CO)[C@@H](O)[C@H](O)[C@H]1O)C(C)(C)O)[C@H]1CC[C@@]2(C)[C@H]3CC=C4[C@@H](CC[C@H](O[C@@H]5O[C@H](CO[C@@H]6O[C@H](CO)[C@@H](O)[C@H](O)[C@H]6O)[C@@H](O)[C@H](O)[C@H]5O)C4(C)C)[C@]3(C)[C@H](O)C[C@]12C [mogroside IV]
natural sweetness [1]: 126 times of that of sugar

C=C1C[C@@]23CC[C@H]4[C@@](C)(CCC[C@@]4(C)C(=O)O[C@@H]4O[C@H](CO)[C@@H](O)[C@H](O)[C@H]4O)[C@@H]2CC[C@]1(O[C@@H]1O[C@H](CO)[C@@H](O)[C@H](O[C@@H]2O[C@H](CO)[C@@H](O)[C@H](O)[C@H]2O)[C@H]1O[C@@H]1O[C@H](CO)[C@@H](O)[C@H](O)[C@H]1O)C3 [Reb-A, Rebaudioside A]
active iron-III reduction (anti-oxidant properties) [2]: substantial anti-oxidant properties | radical scavenging properties (anti-oxidant properties) [3]: substantial anti-oxidant properties

COc1ccc(CCC(=O)c2c(O)cc(O[C@@H]3O[C@H](CO)[C@@H](O)[C@H](O)[C@H]3O[C@@H]3O[C@@H](C)[C@H](O)[C@@H](O)[C@H]3O)cc2O)cc1O [NHDC, Neohesperidin dihydrochalcone]
sensory properties of combinations with NHDC [4]: long lasting lingering; also recorded: boosts the lingering | taste profile in sugarfree beverage [5]: improved the mouth-feel and harmony of taste impression yielding a substantially improved taste profile

C[C@H](CC[C@@H](O[C@@H]1O[C@H](CO[C@@H]2O[C@H](CO)[C@@H](O)[C@H](O)[C@H]2O)[C@@H](O)[C@H](O)[C@H]1O[C@@H]1O[C@H](CO)[C@@H](O)[C@H](O)[C@H]1O)C(C)(C)O)[C@H]1CC[C@@]2(C)[C@@H]3CC=C4[C@@H](CC[C@H](O[C@@H]5O[C@H](CO[C@@H]6O[C@H](CO)[C@@H](O)[C@H](O)[C@H]6O)[C@@H](O)[C@H](O)[C@H]5O)C4(C)C)[C@]3(C)[C@H](O)C[C@]12C [mogroside V]
natural sweetness [1]: 256-344 times of that of sugar

OC[C@@H](O)[C@@H](O)[C@H](O)[C@H](O)CO [D-mannitol]
natural sweetness [1]: 0.55-0.65 times of that of sugar
